Measurements taken from patent US6737383B1, “Herbicidal oxadiazolidines” (priority 1999, dated 2004).

Key:
bedstraw = test: Test B pre/postemergence bedstraw; type: in vivo, Galium aparine
Procedure, shortened: (§1)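 Response is a visual 0-to-10 score relative to untreated plants, where 0 means no effect and 10 means complete control, taken twelve to sixteen days after application. Treatments went onto soil at planting and onto foliage of 1- to 4-leaf plants, using a surfactant-containing non-phytotoxic solvent.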

surinam grass = test: Test B pre/postemergence surinam grass; type: in vivo, Brachiaria decumbens
Procedure, shortened: as §1

blackgrass = test: Test B pre/postemergence blackgrass; type: in vivo, Alopecurus myosuroides
Procedure, shortened: as §1

morningglory = test: Test B pre/postemergence morningglory; type: in vivo, Ipomoea hederacea
Procedure, shortened: as §1

purple nutsedge = test: Test B pre/postemergence purple nutsedge; type: in vivo, Cyperus rotundus
Procedure, shortened: as §1

rape = test: Test B pre/postemergence rape; type: in vivo, Brassica napus
Procedure, shortened: as §1

sugar beet = test: Test B pre/postemergence sugar beet; type: in vivo, Beta vulgaris
Procedure, shortened: as §1

crabgrass = test: Test B pre/postemergence crabgrass; type: in vivo, Digitaria sanguinalis
Procedure, shortened: as §1

wild oat = test: Test B pre/postemergence wild oat; type: in vivo, Avena fatua
Procedure, shortened: as §1

velvetleaf = test: Test B pre/postemergence velvetleaf; type: in vivo, Abutilon theophrasti
Procedure, shortened: as §1

corn = test: Test B pre/postemergence corn; type: in vivo, Zea mays
Procedure, shortened: as §1

duck salad = test: Test B flood test duck salad; type: in vivo, Heteranthera limosa
Procedure, shortened: (§2)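 Read-out is a visual response score from 0 (no effect) to 10 (complete control), assigned by comparison with untreated controls. Treatment was applied at the 2-leaf stage, and plants stayed in the greenhouse for twelve to sixteen days before scoring.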

wheat = test: Test B pre/postemergence wheat; type: in vivo, Triticum aestivum
Procedure, shortened: as §1

smallflower flatsedge = test: Test B flood test smallflower flatsedge; type: in vivo, Cyperus difformis
Procedure, shortened: as §2

cocklebur = test: Test B pre/postemergence cocklebur; type: in vivo, Xanthium strumarium
Procedure, shortened: as §1

pigweed = test: Test B pre/postemergence pigweed; type: in vivo, Amaranthus retroflexus
Procedure, shortened: as §1

[1] = Postemergence, Rate 125 g/ha, scale of 0 to 10 where 0 is no effect and 10 is complete control
[2] = Preemergence, Rate 62 g/ha, scale 0 to 10 (0 no effect, 10 complete control)
[3] = Preemergence, Rate 125 g/ha, 0 is no effect, 10 is complete control
[4] = Preemergence, Rate 250 g/ha, scale 0 to 10, 0 is no effect, 10 is complete control
[5] = Preemergence, Rate 500 g/ha, scale 0 to 10 (0 no effect, 10 complete control)
[6] = Rate 62 g/ha, Postemergence, scale of 0 to 10 where 0 is no effect and 10 is complete control
[7] = Rate 250 g/ha, Postemergence, scale 0 to 10, 0 is no effect, 10 is complete control
[8] = Rate 500 g/ha, Postemergence, scale 0 to 10
[9] = Rate 62 g/ha, headed Pre-emergence (flood test species), scale 0 to 10 (0 no effect, 10 complete control)
[10] = Rate 125 g/ha, Pre-emergence, flood test species, scale 0 to 10 where 0 is no effect and 10 is complete control
[11] = Rate 250 g/ha, headed Pre-emergence (flood test species), scale 0 to 10 (0 no effect, 10 complete control)
[12] = Rate 500 g/ha, headed Pre-emergence (flood test species), scale 0 to 10 (0 no effect, 10 complete control)

CC(C)N(C(=O)n1oc(=O)n(C(C)(C)C)c1=O)c1ccccc1 [Compound 129]
5: Sugarbeets plant response rating (sugar beet; [5]) | Wild oats plant response rating (0 to 10 scale) (wild oat; [3]) | Ducksalad plant response rating (duck salad; [9]) | Ducksalad plant response rating (duck salad; [10]) | Ducksalad plant response rating (duck salad; [11]) | Plant response rating, Ducksalad (duck salad; [12]) | S. Flatsedge plant response rating (smallflower flatsedge; [10])
6: B. signalgrass plant response rating (surinam grass; Rate 500 g/ha, Postemergence, scale of 0 to 10 where 0 is no effect and 10 is complete control) | Crabgrass plant response rating (crabgrass; [2]) | Wild oats plant response rating (wild oat; [4]) | Wild oats plant response rating (wild oat; [5]) | Velvetleaf plant response rating (velvetleaf; [5])
3: Plant response rating, Bedstraw (bedstraw; [7]) | Bedstraw plant response rating (bedstraw; Rate 500 g/ha, Postemergence, scale 0 to 10, 0 no effect, 10 complete control) | Plant response rating, Blackgrass (blackgrass; [7]) | Blackgrass plant response rating (blackgrass; [8]) | Sugarbeets plant response rating (0 to 10 scale) (sugar beet; [3]) | Sugarbeets plant response rating (sugar beet; [4]) | Wild oats plant response rating (wild oat; [2]) | Wheat plant response rating (wheat; [4]) | Wheat plant response rating (wheat; [5]) | S. Flatsedge plant response rating (smallflower flatsedge; [9]) | Redroot pigweed plant response rating (pigweed; [8])
9: Crabgrass plant response rating (crabgrass; [5]) | Crabgrass plant response rating (crabgrass; [8]) | S. Flatsedge plant response rating (smallflower flatsedge; [11]) | Plant response rating, S. Flatsedge (smallflower flatsedge; [12])
7: B. signalgrass plant response rating (surinam grass; [5]) | Crabgrass plant response rating (0 to 10 scale) (crabgrass; [3]) | Crabgrass plant response rating (crabgrass; [4]) | Redroot pigweed plant response rating (pigweed; [5])
8: Plant response rating, Morningglory (morningglory; [7]) | Morningglory plant response rating (morningglory; [8]) | Plant response rating, Crabgrass (crabgrass; [7])
0: Bedstraw plant response rating (bedstraw; [1]) | Bedstraw plant response rating (bedstraw; [2]) | Bedstraw plant response rating (0 to 10 scale) (bedstraw; [3]) | Bedstraw plant response rating (bedstraw; [4]) | Bedstraw plant response rating (bedstraw; [5]) | Bedstraw plant response rating (bedstraw; [6]) | B. signalgrass plant response rating (surinam grass; [1]) | B. signalgrass plant response rating (surinam grass; [2]) | B. signalgrass plant response rating (surinam grass; [6]) | Blackgrass plant response rating (blackgrass; [1]) | Blackgrass plant response rating (blackgrass; [2]) | Blackgrass plant response rating (0 to 10 scale) (blackgrass; [3]) | Blackgrass plant response rating (blackgrass; [6]) | Morningglory plant response rating (morningglory; [2]) | Morningglory plant response rating (0 to 10 scale) (morningglory; [3]) | Morningglory plant response rating (morningglory; [4]) | Morningglory plant response rating (morningglory; [5]) | Nutsedge plant response rating (purple nutsedge; [1]) | Nutsedge plant response rating (purple nutsedge; [2]) | Nutsedge plant response rating (0 to 10 scale) (purple nutsedge; [3]) | Nutsedge plant response rating (purple nutsedge; [4]) | Nutsedge plant response rating (purple nutsedge; [5]) | Nutsedge plant response rating (purple nutsedge; [6]) | Plant response rating, Nutsedge (purple nutsedge; [7]) | Nutsedge plant response rating (purple nutsedge; [8]) | Rape plant response rating (rape; [1]) | Rape plant response rating (rape; [2]) | Rape plant response rating (0 to 10 scale) (rape; [3]) | Rape plant response rating (rape; [4]) | Rape plant response rating (rape; [5]) | Rape plant response rating (rape; [6]) | Plant response rating, Rape (rape; [7]) | Rape plant response rating (rape; [8]) | Sugarbeets plant response rating (sugar beet; [1]) | Sugarbeets plant response rating (sugar beet; [6]) | Plant response rating, Sugarbeets (sugar beet; [7]) | Sugarbeets plant response rating (sugar beet; [8]) | Wild oats plant response rating (wild oat; [1]) | Wild oats plant response rating (wild oat; [6]) | Velvetleaf plant response rating (velvetleaf; [1]) | Velvetleaf plant response rating (velvetleaf; [2]) | Velvetleaf plant response rating (0 to 10 scale) (velvetleaf; [3]) | Velvetleaf plant response rating (velvetleaf; [6]) | Plant response rating, Velvetleaf (velvetleaf; [7]) | Velvetleaf plant response rating (velvetleaf; [8]) | Corn plant response rating (corn; [1]) | Corn plant response rating (corn; [2]) | Corn plant response rating (0 to 10 scale) (corn; [3]) | Corn plant response rating (corn; [6]) | Wheat plant response rating (wheat; [1]) | Wheat plant response rating (wheat; [2]) | Wheat plant response rating (0 to 10 scale) (wheat; [3]) | Wheat plant response rating (wheat; [6]) | Cocklebur plant response rating (cocklebur; [1]) | Cocklebur plant response rating (cocklebur; [2]) | Cocklebur plant response rating (0 to 10 scale) (cocklebur; [3]) | Cocklebur plant response rating (cocklebur; [4]) | Cocklebur plant response rating (cocklebur; [6]) | Plant response rating, Cocklebur (cocklebur; [7]) | Cocklebur plant response rating (cocklebur; [8]) | Redroot pigweed plant response rating (pigweed; [1]) | Redroot pigweed plant response rating (pigweed; [2]) | Redroot pigweed plant response rating (pigweed; [6])
4: Plant response rating, B. signalgrass (surinam grass; [7]) | Blackgrass plant response rating (blackgrass; [5]) | Morningglory plant response rating (morningglory; [1]) | Morningglory plant response rating (morningglory; [6]) | Crabgrass plant response rating (crabgrass; [1]) | Velvetleaf plant response rating (velvetleaf; [4]) | Corn plant response rating (corn; [5]) | Corn plant response rating (corn; [8])
2: B. signalgrass plant response rating (0 to 10 scale) (surinam grass; [3]) | Blackgrass plant response rating (blackgrass; [4]) | Sugarbeets plant response rating (sugar beet; [2]) | Crabgrass plant response rating (crabgrass; [6]) | Plant response rating, Wild oats (wild oat; [7]) | Wild oats plant response rating (wild oat; [8]) | Corn plant response rating (corn; [4]) | Plant response rating, Corn (corn; [7]) | Plant response rating, Wheat (wheat; [7]) | Wheat plant response rating (wheat; [8]) | Redroot pigweed plant response rating (0 to 10 scale) (pigweed; [3]) | Redroot pigweed plant response rating (pigweed; [4]) | Plant response rating, Redroot pigweed (pigweed; [7])
